Results reported in patent publication US20250188085A1, “COMPOSITIONS AND METHODS FOR INHIBITION OF RAS” (THERAS, INC., priority 2022, published 2025).
Read-outs that look alike come from different tables or passages of the source.

Experiments:
[1] = target: T1, GppNHp-loaded KRAS4b (amino acids 1-169) G12C/C118S protein (Homo sapiens, UniProt P01116, C118S/G12C); assay: Covalent cysteine 12 modification by MALDI-TOF MS, GppNHp-loaded KRAS G12C; format: binding; settings: 15 minutes reaction time point
T1 construct: KRAS4b (amino acids 1-169) G12C/C118S protein; made in house
Summary of the method: (§1)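 KRAS4b 1-169 G12C/C118S loaded with GDP, GppNHp or GTP was used at 1 μM in 20 mM HEPES, 150 mM NaCl, 1 mM MgCl2, pH 7.3, and incubated with compound (5 mM DMSO stock) at room temperature in the dark. % modification at 15 min is adduct peak height over total protein peak heights by linear-mode MALDI-TOF.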

[2] = target: T2, GTP-loaded KRAS4b (amino acids 1-169) G12C/C118S protein (Homo sapiens, UniProt P01116, C118S/G12C); assay: Covalent cysteine 12 modification by MALDI-TOF MS, GTP-loaded KRAS G12C; format: binding; settings: 15 minutes reaction time point
T2 construct: KRAS4b (amino acids 1-169) G12C/C118S protein; made in house
Experimental: Reaction: 1 μM of GppNHp-, GTP-, or GDP-loaded KRAS4b (amino acids 1-169) G12C/C118S protein (produced in-house by Protein Expression Laboratory, FNLCR/Leidos Biomed) in 20 mM 4-(2-hydroxyethyl)-1-piperazineethanesulfonic acid (HEPES) buffer containing 150 mM NaCl, 1 mM MgCl2, pH 7.3 was prepared freshly before assay. Ten-μL aliquots of protein were dispensed onto low volume 384-well plate, then 375 nL DMSO, and 25 nL of tested compounds from 5 mM DMSO stocks were added to appropriate wells using ECHO 555 acoustic liquid handler (Labcyte Inc.). For each reaction/assay, three blanks were prepared by mixing 10 μL of protein solution with 400 nL DMSO. The contents of the wells were carefully mixed by aspiration, and then each plate was sealed with an adhesive cover, centrifuged at 2000 g for 1 minute, and kept in the dark at room temperature until 5 min, 15 min, 30 min, or 2 h collections.
Target pretreatment: Before each assay MALDI target (Bruker MPT 384 ground steel BC) was pre-treated by pipetting on each spot 0.75 μL of saturated sinapinic acid in acetonitrile (ACN).
Sample preparation: At collection time point, 2 μL of reaction mixtures were pipetted out into 20 μL MALDI matrix solution (saturated solution of sinapinic acid in 1:1 ACN:water solution containing 0.75% trifluoroacetic acid (TFA)) deposited on 384 well polypropylene plate. Resulting solution was mixed by aspiration, centrifuged at 2000 g for 1 minute, then 1 μL aliquots were dispensed on pre-treated MALDI target using Beckman Coulter Biomek FXP 96/384-Span-8 Laboratory Automation Workstation. Finally, the MALDI target was dried under mild vacuum to produce spots with fine crystalline structure.
Measurements: MALDI-TOF measurements were performed on a Bruker Daltonics rapiflex Tissuetyper TOF-TOF mass spectrometer using linear mode and mass range from 18.6 to 21.6 kDa. Detector gain was set to 3.3× (483 V), sample rate to 5 GS/s, real time smoothing to medium (175 MHz), laser smart beam pattern was set to: “MS Thin Layer M5”, and the laser frequency was 10000 Hz. Spectra were automatically collected using custom Auto Xecute method. Laser power was auto adjusted using fuzzy control. The peak selection range was set to be between 19000 and 21500 Da. Peak evaluation uses half width parameter set to be smaller than 40 Da for processed spectrograms (centroid peak detection; smoothed by SavitzkyGolay algorithm using 7 m/z width and 2 cycles; baseline was subtracted using median algorithm with flatness 1 and median level 0.01). Fuzzy control used Proteins/Oligonucleotides protocol with minimum half width 1/10 times above threshold. Up to 40000 satisfactory shots were collected in 10000 shot steps. Dynamic termination was implemented to finish data collection when peak signal/noise ratio was reaching value of 50.
Spectra processing: Spectra were smoothed by SavitzkyGolay algorithm using 7 m/z width and three cycles. Centroid peak detection algorithm was used with signal to noise threshold set to 6, relative intensity threshold 4%, peak width 10 m/z and median baseline subtraction using flatness of 1 and median level of 0.01. Peak intensity and area under the peak were evaluated and recorded for all peaks between 19,300 Da and 21,550 Da.
Calculation of percent modification: Percent modification was calculated as a ratio of peak height for protein modified by compound to sum of peak height of remaining protein plus peak height for protein modified by compound. If multiple modifications were observed each was calculated as a ratio of peak height for given modification versus sum of peak heights for all observed protein species. Data reported in Table 5 are from 15 minutes reaction time point.

[3] = target: T3, GDP-loaded KRAS4b (amino acids 1-169) G12C/C118S protein (Homo sapiens, UniProt P01116, C118S/G12C); assay: Covalent cysteine 12 modification by MALDI-TOF MS, GDP-loaded KRAS G12C; format: binding; settings: 15 minutes reaction time point
T3 construct: KRAS4b (amino acids 1-169) G12C/C118S protein; made in house
Summary of the method: as §1

[4] = target: T4, Avi-KRAS G12C (1-169) GppNHp/RAF1 RBD-3×FLAG (52-151) (Homo sapiens, UniProt P01116, G12C); assay: Raf1 RBD-KRAS G12C-GppNHp disruption (protein:protein interaction HTRF assay); format: biochemical
T4 construct: Avi-KRAS G12C (1-169) GppNHp/RAF1 RBD-3×FLAG (52-151)
Summary of the method: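 HTRF measuring disruption of 50 nM Avi-KRAS G12C (1-169) loaded with GppNHp binding RAF1 RBD-3×FLAG (52-151), in pH 7.5 Tris buffer with 5 mM MgCl2, 0.1% BSA, 10% DMSO. KRAS preincubated with compound 1 h, then RBD 1 h, then detection reagents 1 h, all at room temperature. Compound titration 30-0.02 μM; activity expressed as percent of DMSO control.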

pERK in NCI-H358 cells = assay: Cell-based pERK HTRF assay; settings: 30 min incubation, read-out: pERK in NCI-H358 cell inhibition IC50
Summary of the method: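 Cells seeded at 4×10^4/well in RPMI with 10% FBS, then next day treated for 30 min with a 9-point, 3-fold series from 75 μM top concentration at 0.25% DMSO. Lysates were read for pERK by HTRF (d2/Eu cryptate antibodies) after 4–24 h at room temperature, emission at 615 nm.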

Structure (SMILES)	GppNHp-KRAS G12C percent of modification [1]	GTP-KRAS G12C percent of modification [2]	GDP-KRAS G12C percent of modification [3]	IC50 [4] [nM]	IC50 (pERK in NCI-H358 cells; Homo sapiens, NCI-H358, 0.5 h) [nM]	IC50 (pERK in NCI-H358 cells) [nM]
C=CC(=O)N1C[C@H](Oc2nc(OC[C@@]34CCCN3C[C@H](F)C4)nc3c(F)c(-c4ccc(F)c5sc(N)c(C#N)c45)c(C(F)(F)F)cc23)C[C@H]1COC (atropisomer, axis not shown) [Compound 90]	D (percent of modification <10%)	D (percent of modification <10%)	D (percent of modification <10%)	> 20000	–	> 1000
C=CC(=O)N1CC[C@@H](Oc2nc(OC[C@@]34CCCN3C[C@H](F)C4)nc3c(F)c(-c4ccc(F)c5sc(N)c(C#N)c45)c(Cl)cc23)[C@@H]1C [Compound 121]	C (10%≤modification <50%)	D (percent of modification <10%)	C (10%≤modification <50%)	≤ 500	100 to 1000	–
C=CC(=O)N1C[C@@H](F)[C@@H](Oc2nc(OC[C@@]34CCCN3C[C@H](F)C4)nc3c(F)c(-c4ccc(F)c5sc(N)c(C#N)c45)c(Cl)cc23)C1 [Compound 93]	A (percent of modification ≥70%)	B (50≤percent of modification <70%)	A (percent of modification ≥70%)	≤ 500	≤ 100	–
C=CC(=O)N1C[C@H](Oc2nc(OC[C@@]34CCCN3C[C@H](F)C4)nc3cc(-c4ccc(F)c5sc(N)c(C#N)c45)c(C(F)(F)F)nc23)C[C@H]1C [Compound 84]	C (10%≤modification <50%)	C (10%≤modification <50%)	C (10%≤modification <50%)	≤ 500	–	≤ 100
C=CC(=O)N1CC[C@@H](Oc2nc(OC[C@@]34CCCN3C[C@H](F)C4)nc3c(F)c(-c4ccc(F)c5sc(N)c(C#N)c45)c(C(F)(F)F)cc23)[C@H]1CO [Compound 65]	A (percent of modification ≥70%)	B (50≤percent of modification <70%)	B (50≤percent of modification <70%)	≤ 500	≤ 100	–
C=CC(=O)N1CC[C@@H](Oc2nc(OC[C@@]34CCCN3C[C@H](F)C4)nc3c(Cl)c(-c4ccc(F)c5sc(N)c(C#N)c45)ncc23)[C@@H]1COC [Compound 129]	A (percent of modification ≥70%)	C (10%≤modification <50%)	B (50≤percent of modification <70%)	≤ 500	100 to 1000	–

Continued, values first:

GppNHp-KRAS G12C percent of modification [1]	GTP-KRAS G12C percent of modification [2]	GDP-KRAS G12C percent of modification [3]	IC50 [4] [nM]	IC50 (pERK in NCI-H358 cells; Homo sapiens, NCI-H358, 0.5 h) [nM]	IC50 (pERK in NCI-H358 cells) [nM]	Structure (SMILES)
B (50≤percent of modification <70%)	C (10%≤modification <50%)	A (percent of modification ≥70%)	≤ 500	≤ 100	–	C=CC(=O)N1CC[C@@H](Oc2nc(OC[C@@]34CCCN3C[C@H](F)C4)nc3cc(-c4ccc(F)c5sc(N)c(C#N)c45)ccc23)[C@H]1C [Compound 103]
A (percent of modification ≥70%)	B (50≤percent of modification <70%)	A (percent of modification ≥70%)	≤ 500	≤ 100	–	C=CC(=O)N1C[C@@H](F)[C@@H](Oc2nc(OC[C@@]34CCCN3C[C@H](F)C4)nc3cc(-c4ccc(F)c5sc(N)nc45)c(C(F)(F)F)cc23)C1 [Compound 58]
B (50≤percent of modification <70%)	B (50≤percent of modification <70%)	B (50≤percent of modification <70%)	≤ 500	≤ 100	–	C=CC(=O)N1CC[C@@H](Oc2nc(OC[C@@]34CCCN3C[C@H](OC)C4)nc3c(F)c(-c4ccc(F)c5sc(N)c(C#N)c45)c(C(F)(F)F)cc23)[C@H]1C [Compound 99]
